# Source: PubChem BioAssay (NCI)
#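 The concentration for 50% growth inhibition is given as GI50. TGI is the concentration that stops growth completely.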
# How the values were obtained:
# Assay in all cases: growth of human tumour cells (NCI), 384-well format
# NCI-H322M lung = test system: NCI-H322M lung
# NCI-H226 lung = test system: NCI-H226 lung
# OVCAR-8 ovarian = test system: OVCAR-8 ovarian
# NCI/ADR-RES ovarian = test system: NCI/ADR-RES ovarian
# MDA-MB-231 breast = test system: MDA-MB-231 breast
# OVCAR-4 ovarian = test system: OVCAR-4 ovarian
# RPMI-8226 leukemia = test system: RPMI-8226 leukemia
# SF-539 CNS = test system: SF-539 CNS
# UACC-62 melanoma = test system: UACC-62 melanoma
# NCI-H522 lung = test system: NCI-H522 lung
# HOP-62 NSCLC = test system: HOP-62 NSCLC
# HL-60(TB) leukemia = test system: HL-60(TB) leukemia
# IGROV1 ovarian = test system: IGROV1 ovarian
# COLO 205 colon = test system: COLO 205 colon
# MALME-3M melanoma = test system: MALME-3M melanoma
# MDA-MB-468 breast = test system: MDA-MB-468 breast
# SNB-75 CNS = test system: SNB-75 CNS
# LOX IMVI melanoma = test system: LOX IMVI melanoma
# 786-0 renal = test system: 786-0 renal
# MDA-MB-435 melanoma = test system: MDA-MB-435 melanoma
# MOLT-4 leukemia = test system: MOLT-4 leukemia
# A549 NSCLC = test system: A549 NSCLC
# SR leukemia = test system: SR leukemia
# KM12 colon = test system: KM12 colon
# K-562 leukemia = test system: K-562 leukemia
# OVCAR-3 ovarian = test system: OVCAR-3 ovarian
# HCC-2998 colon = test system: HCC-2998 colon
# EKVX NSCLC = test system: EKVX NSCLC
# SN12C renal = test system: SN12C renal
# NCI-H460 NSCLC = test system: NCI-H460 NSCLC
# HOP-92 NSCLC = test system: HOP-92 NSCLC
# T-47D breast = test system: T-47D breast
# HCT-15 colon = test system: HCT-15 colon
# SF-295 CNS = test system: SF-295 CNS
# PC-3 prostate = test system: PC-3 prostate
# SK-MEL-5 melanoma = test system: SK-MEL-5 melanoma
# ACHN renal = test system: ACHN renal
# MCF7 breast = test system: MCF7 breast
# HS 578T breast = test system: HS 578T breast
# SK-OV-3 ovarian = test system: SK-OV-3 ovarian
# UACC-257 melanoma = test system: UACC-257 melanoma
# UO-31 renal = test system: UO-31 renal
# NCI-H23 lung = test system: NCI-H23 lung
# SW-620 colon = test system: SW-620 colon
# CAKI-1 renal = test system: CAKI-1 renal
# A498 renal = test system: A498 renal
# M14 melanoma = test system: M14 melanoma
# SF-268 CNS = test system: SF-268 CNS
# DU-145 prostate = test system: DU-145 prostate
# TK-10 renal = test system: TK-10 renal
# OVCAR-5 ovarian = test system: OVCAR-5 ovarian
# BT-549 breast = test system: BT-549 breast
# SNB-19 CNS = test system: SNB-19 CNS
# HT29 colon = test system: HT29 colon
# RXF 393 renal = test system: RXF 393 renal
# SK-MEL-28 melanoma = test system: SK-MEL-28 melanoma
# CCRF-CEM leukemia = test system: CCRF-CEM leukemia
smiles,measurement,setting,value
C[C@@H](NC(=O)c1ccc(F)cc1)c1ccc2c(c1)CCN2C(=O)C1CCOCC1,GI50,NCI-H322M lung,> 100 µM
same,TGI,NCI-H322M lung,> 100 µM
same,GI50,NCI-H226 lung,> 100 µM
same,TGI,NCI-H226 lung,> 100 µM
same,GI50,OVCAR-8 ovarian,> 100 µM
same,TGI,OVCAR-8 ovarian,> 100 µM
same,GI50,NCI/ADR-RES ovarian,> 100 µM
same,TGI,NCI/ADR-RES ovarian,> 100 µM
same,GI50,MDA-MB-231 breast,> 100 µM
same,TGI,MDA-MB-231 breast,> 100 µM
same,GI50,OVCAR-4 ovarian,80.7 µM
same,TGI,OVCAR-4 ovarian,> 100 µM
same,GI50,RPMI-8226 leukemia,91.4 µM
same,TGI,RPMI-8226 leukemia,> 100 µM
same,GI50,SF-539 CNS,> 100 µM
same,TGI,SF-539 CNS,> 100 µM
same,GI50,UACC-62 melanoma,> 100 µM
same,TGI,UACC-62 melanoma,> 100 µM
same,GI50,NCI-H522 lung,> 100 µM
same,TGI,NCI-H522 lung,> 100 µM
same,GI50,HOP-62 NSCLC,> 100 µM
same,TGI,HOP-62 NSCLC,> 100 µM
same,GI50,HL-60(TB) leukemia,> 100 µM
same,TGI,HL-60(TB) leukemia,> 100 µM
same,GI50,IGROV1 ovarian,> 100 µM
same,TGI,IGROV1 ovarian,> 100 µM
same,GI50,COLO 205 colon,> 100 µM
same,TGI,COLO 205 colon,> 100 µM
same,GI50,MALME-3M melanoma,> 100 µM
same,TGI,MALME-3M melanoma,> 100 µM
same,GI50,MDA-MB-468 breast,34.4 µM
same,TGI,MDA-MB-468 breast,> 100 µM
same,GI50,SNB-75 CNS,> 100 µM
same,TGI,SNB-75 CNS,> 100 µM
same,GI50,LOX IMVI melanoma,> 100 µM
same,TGI,LOX IMVI melanoma,> 100 µM
same,GI50,786-0 renal,> 100 µM
same,TGI,786-0 renal,> 100 µM
same,GI50,MDA-MB-435 melanoma,> 100 µM
same,TGI,MDA-MB-435 melanoma,> 100 µM
same,GI50,MOLT-4 leukemia,> 100 µM
same,TGI,MOLT-4 leukemia,> 100 µM
same,GI50,A549 NSCLC,> 100 µM
same,TGI,A549 NSCLC,> 100 µM
same,GI50,SR leukemia,> 100 µM
same,TGI,SR leukemia,> 100 µM
same,GI50,KM12 colon,> 100 µM
same,TGI,KM12 colon,> 100 µM
same,GI50,K-562 leukemia,> 100 µM
same,TGI,K-562 leukemia,> 100 µM
same,GI50,OVCAR-3 ovarian,> 100 µM
same,TGI,OVCAR-3 ovarian,> 100 µM
same,GI50,HCC-2998 colon,> 100 µM
same,TGI,HCC-2998 colon,> 100 µM
same,GI50,EKVX NSCLC,> 100 µM
same,TGI,EKVX NSCLC,> 100 µM
same,GI50,SN12C renal,> 100 µM
same,TGI,SN12C renal,> 100 µM
same,GI50,NCI-H460 NSCLC,> 100 µM
same,TGI,NCI-H460 NSCLC,> 100 µM
same,GI50,HOP-92 NSCLC,> 100 µM
same,TGI,HOP-92 NSCLC,> 100 µM
same,GI50,T-47D breast,58.6 µM
same,TGI,T-47D breast,> 100 µM
same,GI50,HCT-15 colon,> 100 µM
same,TGI,HCT-15 colon,> 100 µM
same,GI50,SF-295 CNS,> 100 µM
same,TGI,SF-295 CNS,> 100 µM
same,GI50,PC-3 prostate,> 100 µM
same,TGI,PC-3 prostate,> 100 µM
same,GI50,SK-MEL-5 melanoma,> 100 µM
same,TGI,SK-MEL-5 melanoma,> 100 µM
same,GI50,ACHN renal,> 100 µM
same,TGI,ACHN renal,> 100 µM
same,GI50,MCF7 breast,> 100 µM
same,TGI,MCF7 breast,> 100 µM
same,GI50,HS 578T breast,> 100 µM
same,TGI,HS 578T breast,> 100 µM
same,GI50,SK-OV-3 ovarian,> 100 µM
same,TGI,SK-OV-3 ovarian,> 100 µM
same,GI50,UACC-257 melanoma,> 100 µM
same,TGI,UACC-257 melanoma,> 100 µM
same,GI50,UO-31 renal,> 100 µM
same,TGI,UO-31 renal,> 100 µM
same,GI50,NCI-H23 lung,> 100 µM
same,TGI,NCI-H23 lung,> 100 µM
same,GI50,SW-620 colon,> 100 µM
same,TGI,SW-620 colon,> 100 µM
same,GI50,CAKI-1 renal,> 100 µM
same,TGI,CAKI-1 renal,> 100 µM
same,GI50,A498 renal,> 100 µM
same,TGI,A498 renal,> 100 µM
same,GI50,M14 melanoma,> 100 µM
same,TGI,M14 melanoma,> 100 µM
same,GI50,SF-268 CNS,> 100 µM
same,TGI,SF-268 CNS,> 100 µM
same,GI50,DU-145 prostate,> 100 µM
same,TGI,DU-145 prostate,> 100 µM
same,GI50,TK-10 renal,> 100 µM
same,TGI,TK-10 renal,> 100 µM
same,GI50,OVCAR-5 ovarian,> 100 µM
same,TGI,OVCAR-5 ovarian,> 100 µM
same,GI50,BT-549 breast,> 100 µM
same,TGI,BT-549 breast,> 100 µM
same,GI50,SNB-19 CNS,> 100 µM
same,TGI,SNB-19 CNS,> 100 µM
same,GI50,HT29 colon,> 100 µM
same,TGI,HT29 colon,> 100 µM
same,GI50,RXF 393 renal,> 100 µM
same,TGI,RXF 393 renal,> 100 µM
same,GI50,SK-MEL-28 melanoma,> 100 µM
same,TGI,SK-MEL-28 melanoma,> 100 µM
same,GI50,CCRF-CEM leukemia,> 100 µM
same,TGI,CCRF-CEM leukemia,> 100 µM
